Data taken from patent US20250325531A1, “TREATMENT OF SYSTOLIC DYSFUNCTION” (MyoKardia, Inc., priority 2024, published 2025).

Experiment: Single ascending oral dose pharmacokinetics in healthy volunteers (plasma and urine, LC MS/MS)
Format: in vivo, human
Details: for dose recovered in urine: 0-48 hours urine
Source text: This example describes the first-in-human study of Compound I. Based on its mechanism of action, Compound I may offer a targeted therapy for patients with DCM caused by genetic or nongenetic mechanisms. The study was a randomized, double-blind, placebo-controlled, sequential group, single-ascending (oral) dose study in healthy subjects aged 18-55 years. Eight dosing cohorts, each comprising eight healthy subjects, were enrolled. Within each cohort, subjects were randomized 6:2 to Compound I: placebo.
Subjects were resident at the clinical site for up to 5 days and 4 nights, from Day-1 (the day before dosing) to Day 4, and received a single dose of Compound I or placebo on Day 1. ECG telemetry was initiated 1 hour predose and continued through 48 hours postdose (Day 3). Any subject with a predose resting HR ≥80 beats per minute was considered ineligible and not treated. […] Subjects returned for a safety follow-up visit 7 days (+1 day) after dosing.
All randomized study subjects received either Compound I or matching placebo as a single oral dose after a fasting period of at least 6 hours. Compound I drug substance is a crystalline, free-base, synthetic molecule with a molecular weight of 435.4 g/mol.
Compound I was provided as a powder for oral suspension. Placebo was provided as calcium carbonate powder. Both treatments were dosed orally as a suspension. The suspension was made using Ora-Plus® suspending vehicle (Perrigo) and a cherry syrup flavoring vehicle (Humco), mixed 50% to 50%. The suspension was followed by approximately 100 mL water. The suspension was made up within 14 days from the time in which it was dosed which was consistent with the stability data on the suspension. The suspension was made up so the volume administered to the subjects who received Compound I was the same at 20 mL.
Each subject received a dose according to the cohort in which they were enrolled. Cohorts were enrolled sequentially, with each cohort receiving an escalated dose of Compound I. The doses administered were 3 mg, 10 mg, 25 mg, 50 mg, 100 mg, 175 mg, 350 mg, and 525 mg, respectively.
The concentrations of Compound I in human plasma and urine were quantitated by high performance liquid chromatography with tandem mass spectrometric detection (LC MS/MS) (Biological sample analysis study report Alturas AD17-726). Plasma samples were extracted by protein precipitation with acetonitrile containing internal standard MYK-5654. The calibration curves were linear over concentration range of 0.500 to 1000 ng/mL with a lower limit of quantification (LLOQ) of 0.500 ng/mL.
The PK Population included all subjects who received Compound I. Blood samples were collected for PK assessments. The actual timing of the samples may have been modified and/or up to an additional 2 samples may have been requested by the SRC after review of the data from previous cohorts. It was important that PK sampling occurred as closely as possible to the scheduled time (+10%). Both blood and urine samples were used for PK assessments.
In addition, for subjects who received placebo, a single plasma sample near the predicted tmax of Compound I was evaluated to confirm the lack of circulating Compound I. Plasma concentration data for Compound I was summarized using descriptive statistics, including mean, standard deviation (SD), median, minimum, and maximum values, and percent coefficient of variation. Other PK parameters included (but were not limited to) Cmax, tmax, AUC, t1/2, and MRT. Additionally, the apparent terminal-phase terminal half-life was calculated. The dose proportionality of AUC and Cmax was explored.

Cn1cc(S(=O)(=O)[C@@](C)(F)C2CCN(C(=O)Nc3ccon3)CC2)c(C(F)F)n1 [Compound I, (R)-4-(1-((3-(difluoromethyl)-1-methyl-1H-pyrazol-4-yl)sulfonyl)-1-fluoroethyl)-N-(isoxazol-3-yl) piperidine-1-carboxamide]
dose recovered in urine (350 mg): approximately 6.0% | dose recovered in urine (525 mg): ~8.6% | AUC0-48 Geometric Mean (3 mg): 676.32 ng·h/mL | AUC0-last Median (3 mg): 713.41 ng·h/mL | AUC0-∞ Geometric Mean (3 mg): 722.23 ng·h/mL | CL/F Geometric Mean (3 mg): 4.15 L/h | CL/F Mean (3 mg): 4.26 L/h | CL/F Median (3 mg): 4.22 L/h | Extrapolation Geometric Mean (3 mg): 2.71% | Extrapolation Mean (3 mg): 2.78% | Extrapolation Median (3 mg): 2.82% | Half-Life Lambda Z Geometric Mean (3 mg): 11.10 h | CL/F Geometric Mean (10 mg): 2.99 L/h | CL/F Mean (10 mg): 3.06 L/h | CL/F Median (10 mg): 2.88 L/h | Cmax Mean (10 mg): 139.17 ng/mL | Extrapolation Geometric Mean (10 mg): 1.59% | Extrapolation Mean (10 mg): 1.90% | Extrapolation Median (10 mg): 2.24% | Half-Life Lambda Z Mean (10 mg): 13.36 h | Mean Residence Time Geometric Mean (10 mg): 21.06 h | Tmax Geometric Mean (10 mg): 4.80 h | Tmax Mean (10 mg): 4.85 h | AUC0-last Geometric Mean (25 mg): 6924.51 ng·h/mL | AUC0-last Mean (25 mg): 7161.62 ng·h/mL | CL/F Geometric Mean (25 mg): 3.55 L/h | CL/F Mean (25 mg): 3.69 L/h | CL/F Median (25 mg): 3.32 L/h | Extrapolation Geometric Mean (25 mg): 1.45% | Extrapolation Mean (25 mg): 1.72% | Extrapolation Median (25 mg): 1.92% | Half-Life Lambda Z Geometric Mean (25 mg): 13.14 h | Half-Life Lambda Z Mean (25 mg): 13.28 h | Mean Residence Time Geometric Mean (25 mg): 20.60 h | Mean Residence Time Median (25 mg): 20.07 h | Tmax Geometric Mean (25 mg): 4.64 h | Tmax Mean (25 mg): 4.67 h | AUC0-last Geometric Mean (50 mg): 11075.03 ng·h/mL | AUC0-last Median (50 mg): 11185.34 ng·h/mL | AUC0-∞ Geometric Mean (50 mg): 11177.07 ng·h/mL | AUC0-∞ Median (50 mg): 11204.30 ng·h/mL | CL/F Geometric Mean (50 mg): 4.47 L/h | CL/F Mean (50 mg): 4.53 L/h | CL/F Median (50 mg): 4.46 L/h | Extrapolation Geometric Mean (50 mg): 0.46% | Extrapolation Mean (50 mg): 0.91% | Extrapolation Median (50 mg): 0.46% | Mean Residence Time Geometric Mean (50 mg): 20.79 h | Mean Residence Time Mean (50 mg): 20.98 h | Tmax Geometric Mean (50 mg): 4.66 h | Tmax Mean (50 mg): 4.69 h | AUC0-48 Median (100 mg): 21561.98 ng·h/mL | AUC0-last Geometric Mean (100 mg): 21734.19 ng·h/mL | AUC0-last Median (100 mg): 22401.00 ng·h/mL | CL/F Geometric Mean (100 mg): 4.69 L/h | CL/F Mean (100 mg): 4.76 L/h | CL/F Median (100 mg): 5.33 L/h | Extrapolation Geometric Mean (100 mg): 0.36% | Extrapolation Mean (100 mg): 5.48% | Extrapolation Median (100 mg): 0.14% | Half-Life Lambda Z Geometric Mean (100 mg): 11.08 h | Tmax Mean (100 mg): 4.50 h | AUC0-48 Median (175 mg): 32704.35 ng·h/mL | AUC0-last Geometric Mean (175 mg): 38235.62 ng·h/mL | CL/F Geometric Mean (175 mg): 4.57 L/h | CL/F Mean (175 mg): 4.66 L/h | CL/F Median (175 mg): 4.45 L/h | Cmax Geometric Mean (175 mg): 1301.37 ng/mL | Cmax Mean (175 mg): 1316.17 ng/mL | Extrapolation Geometric Mean (175 mg): 0.14% | Extrapolation Mean (175 mg): 0.17% | Extrapolation Median (175 mg): 0.16% | Half-Life Lambda Z Mean (175 mg): 15.83 h | Mean Residence Time Geometric Mean (175 mg): 24.44 h | Mean Residence Time Median (175 mg): 24.43 h | Tmax Geometric Mean (175 mg): 5.07 h | Tmax Mean (175 mg): 5.11 h | AUC0-24 Geometric Mean (350 mg): 44703.88 ng·h/mL | AUC0-48 Median (350 mg): 66430.88 ng·h/mL | AUC0-last Geometric Mean (350 mg): 73185.05 ng·h/mL | AUC0-last Median (350 mg): 76161.9 ng·h/mL | AUC0-∞ Geometric Mean (350 mg): 73626.42 ng·h/mL | AUC0-∞ Median (350 mg): 76241.22 ng·h/mL | CL/F Geometric Mean (350 mg): 4.75 L/h | CL/F Mean (350 mg): 4.95 L/h | CL/F Median (350 mg): 4.75 L/h | Extrapolation Geometric Mean (350 mg): 0.37% | Extrapolation Mean (350 mg): 0.60% | Extrapolation Median (350 mg): 0.43% | Half-Life Lambda Z Mean (350 mg): 14.66 h | Mean Residence Time Median (350 mg): 22.73 h | Tmax Geometric Mean (350 mg): 4.84 h | Tmax Mean (350 mg): 4.95 h | AUC0-24 Median (350 mg + 525 mg): 38537.03 ng·h/mL | AUC0-∞ Mean (350 mg + 525 mg): 74358.88 ng·h/mL | CL/F Geometric Mean (350 mg + 525 mg): 6.04 L/h | CL/F Mean (350 mg + 525 mg): 6.51 L/h | CL/F Median (350 mg + 525 mg): 6.10 L/h | Extrapolation Geometric Mean (350 mg + 525 mg): 0.29% | Extrapolation Mean (350 mg + 525 mg): 0.59% | Extrapolation Median (350 mg + 525 mg): 0.32% | Half-Life Lambda Z Geometric Mean (350 mg + 525 mg): 14.51 h | Mean Residence Time Mean (350 mg + 525 mg): 24.28 h | Tmax Geometric Mean (350 mg + 525 mg): 4.89 h | Tmax Mean (350 mg + 525 mg): 4.96 h | AUC0-24 Median (525 mg): 38212.84 ng·h/mL | AUC0-48 Geometric Mean (525 mg): 56964.59 ng·h/mL | AUC0-last Geometric Mean (525 mg): 68111.84 ng·h/mL | AUC0-∞ Geometric Mean (525 mg): 68514.68 ng·h/mL | CL/F Geometric Mean (525 mg): 7.66 L/h | CL/F Mean (525 mg): 8.07 L/h | CL/F Median (525 mg): 7.64 L/h | Cmax Geometric Mean (525 mg): 2294.46 ng/mL | Cmax Mean (525 mg): 2350.00 ng/mL | Extrapolation Geometric Mean (525 mg): 0.22% | Extrapolation Mean (525 mg): 0.59% | Extrapolation Median (525 mg): 0.23% | Half-Life Lambda Z Geometric Mean (525 mg): 14.70 h | Half-Life Lambda Z Median (525 mg): 13.77 h | Tmax Geometric Mean (525 mg): 4.94 h | Tmax Mean (525 mg): 4.97 h | dose proportionality slope (power model) (all doses, 95% CI 0.8358-0.9417): 0.8888
